US9340532B2, “Methods and compositions for inhibiting CNKSR1” (PHUSIS THERAPEUTICS, INC., priority 2012, dated 2016)
pIC50: −log10 of the molar value.

What was measured:
wt-KRAS NSCLC cell lines = assay: Screening against NSCLC cell line panel, wt-KRAS lines; type: cell-based; conditions: Table 6, mean of 3 wt-KRAS lines; read-out: NSCL cell line cytotoxicity IC50 wt-KRAS
Method: The isogenic KRAS lines harboring G12D, G12C, and G12V were obtained from Horizon Discovery labs on a one year lease. These cells were cultured in McCoys media with 10% FBS to 80% confluency. Cells were then released from flasks via trypsinization and plated into 96-well plates at an initial density range of 2000 cells per well. Cells were allowed 24 hours to attach, and then the agents were added to the culture media at a range of concentrations from 0-100 μM. Cells were incubated for 72 hours with the drugs, and then viability was assessed using an MTS viability assay. Cells were exposed to MTS reagent (Promega) dissolved in PBS (Hyclone) at a concentration of 200 μL reagent/mL media for 2 hours. Absorbance was then read at 490 nm, and viability was expressed as a percentage normalized between the negative control (no cells plated) and the condition of cells with no drug added (100% viability) normalized as the upper limit of viability.
Our panel of 30 cell lines and an extensive characterization were obtained from Dr. John Minna (UTSW). All cell lines were cultured in RPMI 1640 with 10% FBS. Cells were treated with concentrations of agents at concentrations 0.01 to 50 μM and evaluated as described above. IC50's were determined using Excelfit.

[1] = tested on: mut-KRAS H2122 NSCLC tumor xenograft; assay: Antitumor activity, H2122 xenograft; type: in vivo; conditions: scid mice
Method: In embodiments, identified compounds may be nontoxic at about […] for about 20 days with no weight loss and no observable toxic effects for the animal, and may have antitumor activity (FIG. 4 A).

[2] = Stability in biological media: human plasma; type: in vitro ADME; conditions: 50 μg/ml, 37° C.
[3] = tested on: H1373 (KRAS mutant cell line); assay: Proliferation Assay H1373; type: cell-based; conditions: Homo sapiens, NCI-H1373, N = 2 experiments
Summary of the method: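 Cells plated 2000 per well, allowed 24 h to attach, then exposed 72 h to agents (0-100 μM for isogenic lines; 0.01 to 50 μM for the RPMI 1640/10% FBS-cultured 30-line NSCLC panel). MTS read at 490 nm after 2 h, normalized to no-cell and no-drug controls; IC50 from curve fitting.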

PH-domain of Tiam1 = assay: SPR binding to expressed PH-domain of Tiam1
Method: In embodiments, the binding of identified compounds to the crystal structures of other PH-domain signaling proteins, AKT, PDPK1, Btk, and Tiam1 can be predicted. In such embodiments, the Kds exceed about 100 μM. In other embodiments, SPR can measure the binding of identified compounds to the expressed PH-domains of AKT, PDPK1 and Tiam1. […] Thus, the identified compounds appear have, at least, about 50 to about 100 fold selectivity for CNKSR1 compared to the other PH-domains studied.
A commercially available docking package, GOLD (GOLD [3.2], CCDC: Cambridge, UK, 2007) was used to evaluate the docking of compounds 1-7 into the binding pocket, see e.g. Table 5. Other docking was performed using modeling algorithms with state-of-the-art commercial drug discovery software (Schrodinger suite). GLIDE was chosen as the docking algorithm used to select and optimize compounds, providing a GlideScore as a rough estimate of binding affinity that was used to rank and select the best compounds. Additionally, ligand-based approaches provided an alternative to structure based drug discovery. Ligand-based virtual screening methodologies can take into account shape and electrostatics (like ROCS) and the pharmacophoric features (acceptor, donor, hydrophobic, aromatic, etc.) of its functional groups. […]

Q: With `CCOC(=O)Cc1nn(Cc2nc(-c3ccc(C)cc3)cs2)c(=O)c2ccccc12` [Compound 7] as the compound, how does the pIC50 (wt-KRAS NSCLC cell lines) read?
A: < 4.00

Q: What about the “tumor growth rate inhibition” value [1] of the same compound?
A: about 45%

Q: And the tumor growth rate ([1]; vehicle about 55)?
A: about 30 mm^3/day

Q: What about the Half life [2] of the same compound?
A: stable

Q: And the Half life ([2]; listed as #7)?
A: completely stable

Q: And the pIC50 [3]?
A: < 4.00

Q: And the “SPR binding to PH-domain of Tiam1” value (PH-domain of Tiam1)?
A: No measurable binding
